The record followed here is article PMC6934184, “Selective DNA-PKcs inhibition extends the therapeutic index of localized radiotherapy and chemotherapy” (The Journal of Clinical Investigation, 2019).

The test has as its target T1, ULK3 (Homo sapiens, UniProt Q6PHR2).
T1 construct: purchased Thermo Fisher Scientific (Life Technologies) SelectScreen
Briefly: SelectScreen LanthaScreen. It is filed as binding. Particulars: 1 µM. The method in brief:
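Percent values come from Thermo SelectScreen profiling of NU5455, combining activity and binding assays. CSF1R was run in Z'LYTE format at Km app ATP, and CAMK1 in Adapta format with ATP listed at 10.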

T1 sequence (Q6PHR2 whole entry): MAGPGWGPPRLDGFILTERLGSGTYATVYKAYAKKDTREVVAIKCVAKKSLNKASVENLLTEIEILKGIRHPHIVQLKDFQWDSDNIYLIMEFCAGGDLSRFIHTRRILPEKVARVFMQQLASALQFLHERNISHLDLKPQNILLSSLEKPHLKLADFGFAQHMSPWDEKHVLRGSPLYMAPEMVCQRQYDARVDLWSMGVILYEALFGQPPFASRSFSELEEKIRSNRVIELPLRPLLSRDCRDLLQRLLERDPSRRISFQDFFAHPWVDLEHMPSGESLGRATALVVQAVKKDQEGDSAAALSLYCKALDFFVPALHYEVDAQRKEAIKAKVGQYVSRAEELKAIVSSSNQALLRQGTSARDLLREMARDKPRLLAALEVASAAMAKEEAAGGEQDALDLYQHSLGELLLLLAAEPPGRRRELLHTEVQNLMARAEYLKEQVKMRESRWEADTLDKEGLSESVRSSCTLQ

Turning to `CN(C(=O)CN1CCOCC1)c1ccc2sc3c(-c4cccc5c(=O)cc(N6CC7CCC(C6)O7)oc45)cccc3c2c1` [NU5455], the “% displacement” value is 4.5%.
